# Laboratory results published in patent publication US7629458B2, “Preparation of levofloxacin and hemihydrate thereof” (Teva Pharmaceutical Industries Ltd., priority 2001, dated 2009).
# What was measured:
# [1] = Storage of crystal forms in a closed or open bottle at RT, conversion to hemihydrate by absorption of atmospheric water; assay type: physicochemical; conditions: sample kept in an open bottle
# Excerpt: Another embodiment of the invention is a method for preparing a levofloxacin hemihydrate comprising storing one or more forms selected from the group consisting of Forms A, B, C, F, G, and H for an amount of time sufficient for the one or more forms to convert to a levofloxacin hemihydrate by the absorption of atomospheric water. For example, Forms A, B, C, F, G and H were converted to hemihydrate after 7-29 days of storing in a closed bottle at RT. The conversion to hemihydrate was faster (about 24 h) when keeping the sample in an open bottle.
# [2] = Exposure of wet material to the air at RT covered with paper, polymorph of the sample; assay type: physicochemical
# Procedure: The wet material was exposed to the air at RT covered with paper (for protection).
# A first portion of the wet material was stirred in 5 v of acetonitrile at 75° C. for 2 h, then filtrated under vacuum. The polymorphism of the wet sample was Hemihydrate. A second portion of the wet material was exposed to the air at RT covered with paper (for protection).
# After a few hours the polymorph of the wet samples was Hemihydrate.
# [3] = ordinary relative humidity conditions; cited from earlier work
smiles,measurement,setting,value
"C[C@H]1COc2c(N3CCN(C)CC3)c(F)cc3c(=O)c(C(=O)O)cn1c23 [Form A, levofloxacin]",time of conversion to hemihydrate,[1],about 24 h
"C[C@H]1COc2c(N3CCN(C)CC3)c(F)cc3c(=O)c(C(=O)O)cn1c23 [Form H, levofloxacin]",polymorph of the wet sample after exposure to the air,"[2]; after 3, 6, 9 hours (Example 12)",Form G
same,polymorph of the wet sample after exposure to the air,[2]; after 24 hours (Example 12),hemihydrate polymorph
same,polymorph of the wet sample after exposure to the air,[2]; after a few hours (Example 13),Hemihydrate
"C[C@H]1COc2c(N3CCN(C)CC3)c(F)cc3c(=O)c(C(=O)O)cn1c23 [Form γ, levofloxacin]",form obtained after rapid adsorption of water vapor,[3],hemihydrate
"C[C@H]1COc2c(N3CCN(C)CC3)c(F)cc3c(=O)c(C(=O)O)cn1c23 [form α, levofloxacin]",form obtained after rapid adsorption of water vapor,[3],monohydrate
